Measured values reported in PubChem BioAssay (NCI).
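Values below derive from 48-hour exposures of cells grown in 96-well plates, with endpoints linearly interpolated between the two concentrations bracketing the appropriate inhibition level. TGI: total growth inhibition.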

Key:
Experiment in all cases: NCI tumour cell line growth inhibition, 48 h
RXF 393 renal = test system: RXF 393 renal
NCI-H226 lung = test system: NCI-H226 lung
OVCAR-4 ovarian = test system: OVCAR-4 ovarian
EKVX NSCLC = test system: EKVX NSCLC
LOX IMVI melanoma = test system: LOX IMVI melanoma
COLO 205 colon = test system: COLO 205 colon
NCI-H23 lung = test system: NCI-H23 lung
M14 melanoma = test system: M14 melanoma
SF-295 CNS = test system: SF-295 CNS
K-562 leukemia = test system: K-562 leukemia
SW-620 colon = test system: SW-620 colon
UO-31 renal = test system: UO-31 renal

Q: Which results are given for OCC1OC(O[C@H]2CN3[C@H](O)[C@@H](O)[C@H](O)[C@H]3C2O)C(O)C(O)C1O (stereo not given in full)?
A: TGI (RXF 393 renal): > 100 µM; TGI (NCI-H226 lung): > 100 µM; TGI (OVCAR-4 ovarian): > 100 µM; TGI (EKVX NSCLC): > 100 µM; TGI (LOX IMVI melanoma): > 100 µM; TGI (COLO 205 colon): > 100 µM; TGI (NCI-H23 lung): > 100 µM; TGI (M14 melanoma): > 100 µM; TGI (SF-295 CNS): > 100 µM; TGI (K-562 leukemia): > 100 µM; TGI (SW-620 colon): > 100 µM; TGI (UO-31 renal): > 100 µM

Q: Which TGI (RXF 393 renal) does the source give for COc1cc(/C=C/C(=O)O)ccc1OS(=O)(=O)O here?
A: Its TGI is over 100 µM.

Q: And the TGI (NCI-H226 lung)?
A: The TGI was over 100 µM.

Q: And the TGI (OVCAR-4 ovarian)?
A: Its TGI is over 100 µM.

Q: What about the TGI (EKVX NSCLC) of the same molecule?
A: Its TGI is over 100 µM.

Q: And the TGI (LOX IMVI melanoma)?
A: The TGI was over 100 µM.

Q: What about the TGI (COLO 205 colon) of the same molecule?
A: The TGI was over 100 µM.

Q: What about the TGI (NCI-H23 lung) of the same molecule?
A: The TGI was over 100 µM.

Q: And the TGI (M14 melanoma)?
A: Its TGI is over 100 µM.

Q: What about the TGI (SF-295 CNS) of the same molecule?
A: Its TGI is over 100 µM.

Q: And the TGI (K-562 leukemia)?
A: The TGI was over 100 µM.

Q: What about the TGI (SW-620 colon) of the same molecule?
A: The TGI was over 100 µM.

Q: What about the TGI (UO-31 renal) of the same molecule?
A: Its TGI is over 100 µM.

Q: How did the TGI (RXF 393 renal) turn out when NNC(=O)c1cccc2c1Oc1ccccc1S2 was run?
A: Its TGI is over 100 µM.

Q: What about the TGI (NCI-H226 lung) of the same molecule?
A: Its TGI is over 100 µM.

Q: What about the TGI (OVCAR-4 ovarian) of the same molecule?
A: Its TGI is over 100 µM.

Q: And the TGI (EKVX NSCLC)?
A: The TGI was over 100 µM.

Q: What about the TGI (LOX IMVI melanoma) of the same molecule?
A: Its TGI is over 100 µM.

Q: And the TGI (COLO 205 colon)?
A: The TGI was over 100 µM.

Q: What about the TGI (NCI-H23 lung) of the same molecule?
A: The TGI was over 100 µM.

Q: And the TGI (M14 melanoma)?
A: Its TGI is over 100 µM.

Q: And the TGI (SF-295 CNS)?
A: The TGI was over 100 µM.

Q: And the TGI (K-562 leukemia)?
A: The TGI was over 100 µM.

Q: And the TGI (SW-620 colon)?
A: Its TGI is over 100 µM.

Q: And the TGI (UO-31 renal)?
A: The TGI was over 100 µM.

Q: With Clc1cccc(C2ON=C(c3ccccc3)N2C23CC4CC(CC(C4)C2)C3)c1Cl (stereo not given) as the molecule, how does the TGI (RXF 393 renal) read?
A: Its TGI is over 10 µM.

Q: What about the TGI (NCI-H226 lung) of the same molecule?
A: Its TGI is over 10 µM.

Q: And the TGI (OVCAR-4 ovarian)?
A: Its TGI is over 10 µM.

Q: What about the TGI (EKVX NSCLC) of the same molecule?
A: The TGI was over 10 µM.

Q: What about the TGI (LOX IMVI melanoma) of the same molecule?
A: The TGI was over 10 µM.

Q: And the TGI (COLO 205 colon)?
A: The TGI was over 10 µM.

Q: And the TGI (NCI-H23 lung)?
A: The TGI was over 10 µM.

Q: What about the TGI (M14 melanoma) of the same molecule?
A: Its TGI is over 10 µM.

Q: What about the TGI (SF-295 CNS) of the same molecule?
A: The TGI was over 10 µM.

Q: And the TGI (K-562 leukemia)?
A: Its TGI is over 10 µM.

Q: And the TGI (SW-620 colon)?
A: The TGI was over 10 µM.

Q: What about the TGI (UO-31 renal) of the same molecule?
A: The TGI was over 10 µM.

Q: With CC[P+](C#Cc1ccccc1)(c1ccccc1)c1ccccc1 as the molecule, how does the TGI (RXF 393 renal) read?
A: The TGI was 4.39 µM.

Q: And the TGI (NCI-H226 lung)?
A: The TGI was 8.69 µM.

Q: What about the TGI (OVCAR-4 ovarian) of the same molecule?
A: Its TGI is 12.3 µM.

Q: What about the TGI (EKVX NSCLC) of the same molecule?
A: The TGI was 11.9 µM.

Q: What about the TGI (LOX IMVI melanoma) of the same molecule?
A: Its TGI is 4.19 µM.

Q: What about the TGI (COLO 205 colon) of the same molecule?
A: The TGI was 2.59 µM.

Q: What about the TGI (NCI-H23 lung) of the same molecule?
A: The TGI was 7.51 µM.

Q: And the TGI (M14 melanoma)?
A: The TGI was 3.56 µM.

Q: And the TGI (SF-295 CNS)?
A: Its TGI is 21.1 µM.

Q: What about the TGI (K-562 leukemia) of the same molecule?
A: The TGI was 0.74 µM.

Q: And the TGI (SW-620 colon)?
A: Its TGI is 10.8 µM.

Q: And the TGI (UO-31 renal)?
A: Its TGI is 27 µM.
